In brackets after ≈: the same amount, converted by molar mass. Counter-ions that a name gives are not always drawn. Like-named read-outs stand apart in the source and are kept apart here.
Columns and labels:
[1] = Form change (stability) study of slurried solids by XRPD; type: physicochemical; conditions: slurried in either propylene glycol or ethanol, FIG. 5
Procedure: (§1) The solubility of Compound (1), as either Type A or the sodium salt form, was investigated in various non-aqueous solvents. The solutions were prepared by addition of excess Compound (1) to 0.25 ml to 1.0 ml of excipient in amber screw cap vials with Teflon lined caps. The samples were allowed to rotate at room temperature for up to 4 days. Sampling was done by centrifuging (14,000 rpm on the Eppendorf model 5415C table top centrifuge) and filtering through a 0.45 μm PVDF filter. The filtrate was subject to HPLC analysis for determining the solubility. HPLC analysis was conducted with an Agilent 1100 using gradient or isocratic conditions. Both methods used acetonitrile/water (each with 0.1% Trifluroacetic Acid) and an ACE C-18 stationary phase with column heating maintained at 40-45° C. The wavelength of detection was set at 220 nm or 264 nm. Wet solids were collected and analyzed for form change (stability) by XRPD.
XRPD analyses for the form change studies were conducted on a Bruker AXS X-Ray Powder Diffractometer Model D8 Discover or D8 Advance, available from Bruker AXS, Inc. of Madison, Wis., using CuKα radiation. The tube power was set to either 40 kV and 40 mA or 40 kV and 30 mA. […]

[2] = Solubility in non-aqueous excipients (excess solid, HPLC of filtrate); type: physicochemical; conditions: room temperature, rotated up to 4 days; for solubility: thermodynamic from solid; for Solubility in Ethanol: excipient Ethanol; for Solubility in Transcutol P: excipient Transcutol P
Procedure: as §1

HCV infection = assay: Human clinical trials in HCV-infected patients; type: in vivo
HCV NS3 serine protease = HCV NS3 serine protease (Hepatitis C virus genotype 1a, UniProt P27958); conditions: cited from earlier work
Chain of HCV NS3 serine protease (P27958 1658-1711): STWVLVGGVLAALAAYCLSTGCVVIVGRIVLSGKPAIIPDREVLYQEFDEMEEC
Chain of HCV NS3 serine protease (P27958 1027-1657): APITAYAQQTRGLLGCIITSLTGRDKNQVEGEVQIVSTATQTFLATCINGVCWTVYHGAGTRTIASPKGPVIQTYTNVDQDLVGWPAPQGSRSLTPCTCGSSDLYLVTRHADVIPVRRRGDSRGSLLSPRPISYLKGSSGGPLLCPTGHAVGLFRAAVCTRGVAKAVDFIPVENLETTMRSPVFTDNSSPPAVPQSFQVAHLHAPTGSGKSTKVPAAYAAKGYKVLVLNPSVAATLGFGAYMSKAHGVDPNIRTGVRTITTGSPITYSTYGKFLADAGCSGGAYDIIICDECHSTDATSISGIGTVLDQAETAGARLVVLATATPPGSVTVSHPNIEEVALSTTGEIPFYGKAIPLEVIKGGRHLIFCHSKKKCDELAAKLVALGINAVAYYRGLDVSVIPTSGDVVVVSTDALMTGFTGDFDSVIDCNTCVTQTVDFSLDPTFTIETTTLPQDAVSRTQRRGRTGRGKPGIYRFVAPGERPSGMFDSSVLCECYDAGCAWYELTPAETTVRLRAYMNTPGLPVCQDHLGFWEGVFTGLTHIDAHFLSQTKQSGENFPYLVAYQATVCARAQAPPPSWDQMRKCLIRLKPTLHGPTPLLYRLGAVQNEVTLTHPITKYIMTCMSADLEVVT

| Structure (SMILES) | Form stability (change in XRPD pattern of remaining solid) ([1]; listed as crystalline sodium salt form of Compound (1)) | solubility ([2]; Capmul MCM (non-aqueous excipient), oil or lipid, excipient Capmul MCM, read-out: Solubility in Capmul MCM) | solubility ([2]; Capmul PG8 (non-aqueous excipient), oil or lipid, excipient Capmul PG8, read-out: Solubility in Capmul PG8) | solubility ([2]; Labrasol (non-aqueous excipient), oil or lipid, excipient Labrasol, read-out: Solubility in Labrasol) | solubility ([2]; PEG 400 (non-aqueous excipient), organic solvent or mixture, excipient PEG 400, read-out: Solubility in PEG 400) | solubility ([2]; Propylene Glycol (non-aqueous excipient), organic solvent or mixture, excipient Propylene Glycol, read-out: Solubility in Propylene Glycol) | Solubility in Ethanol [2] | Solubility in Transcutol P [2] | Effectiveness in treating HCV-infected patients (HCV infection) | Form stability (change in XRPD pattern of remaining solid) ([1]; listed as Type A form of Compound (1)) | Solubility in Capmul MCM ([2]; excipient Capmul MCM) | Solubility in Capmul PG8 ([2]; excipient Capmul PG8) | Solubility in Labrasol ([2]; excipient Labrasol) | Solubility in PEG 400 ([2]; excipient PEG 400) | Inhibitory activity against HCV NS3 serine protease (HCV NS3 serine protease) |
| --- | --- | --- | --- | --- | --- | --- | --- | --- | --- | --- | --- | --- | --- | --- | --- |
| C=C[C@@H]1C[C@]1(NC(=O)[C@@H]1C[C@@H](Oc2cc(-c3csc(NC(=O)C(C)C)n3)nc3c(Br)c(OC)ccc23)CN1C(=O)[C@@H](NC(=O)OC1CCCC1)C(C)(C)C)C(=O)O [Compound (1) Na salt] | no change in the XRPD pattern | 262.5 ± 2.6 mg/mL | < 169 mg/mL | 175 ± 11.8 mg/mL | 234 ± 34 mg/mL | > 468 mg/mL | 187.0 ± 23.9 mg/mL | 430.6 ± 14.7 mg/mL | demonstrated effectiveness | – | – | – | – | – | – |
| C=C[C@@H]1C[C@]1(NC(=O)[C@@H]1C[C@@H](Oc2cc(-c3csc(NC(=O)C(C)C)n3)nc3c(Br)c(OC)ccc23)CN1C(=O)[C@@H](NC(=O)OC1CCCC1)C(C)(C)C)C(=O)O [Type A of Compound (1)] | – | – | – | – | – | – | 0.9 ± 0.1 mg/mL (≈ 1.03 mM) | 24.3 ± 0.3 mg/mL (≈ 27.9 mM) | – | clear form change | 220.6 ± 7.4 mg/mL (≈ 254 mM) | 172.6 ± 8.3 mg/mL (≈ 198 mM) | 146.7 ± 5.1 mg/mL (≈ 169 mM) | 136.8 ± 3.2 mg/mL (≈ 157 mM) | – |
| C=C[C@@H]1C[C@]1(NC(=O)[C@@H]1C[C@@H](Oc2cc(-c3csc(NC(=O)C(C)C)n3)nc3c(Br)c(OC)ccc23)CN1C(=O)[C@@H](NC(=O)OC1CCCC1)C(C)(C)C)C(=O)O [Compound (1)] | – | – | – | – | – | – | – | – | – | – | – | – | – | – | selective and potent inhibitor |
